Measurements from US20250387359A1, “COMPOUNDS AND METHODS FOR THE TREATMENT OF PARASITIC INFECTIONS” (THE BOARD OF TRUSTEES OF THE UNIVERSITY OF ILLINOIS, priority 2019, published 2025).
Where two headings read alike, the source gives them in different places.

What was measured:
[1] = tested on: Cryptosporidium parvum; assay: In vitro anti-Cryptosporidium effect in HCT-8 cells (immunofluorescence assay); type: cell-based; conditions: for IC50: Cryptosporidium parvum, HCT-8 cells
Description: In vitro testing of the anti-Cryptosporidium effect of CpLDH inhibitors. HCT-8 cells were cultured in supplemented RPMI-1640 medium in 96-well plates. When the cells were confluent, old medium was replaced with fresh medium. To one set of wells, varying concentrations of recombinant CpLDH inhibitors (reconstituted in DMSO and diluted in RPMI medium) were added, while another set was left without inhibitors. Paromomycin was used as a positive control drug reconstituted in distilled sterile water. Then, 4×10^4 freshly excysted sporozoites were added to each well and incubated at 37° C. with 5% CO2. After 2 h incubation, varying concentrations of CpLDH inhibitors were added to the set of infected cells that were not treated initially. Control infected cells without inhibitors, but with added DMSO volumes equivalent to those used in the wells with inhibitors, were included. The cells were maintained in culture for a total of either 48 h or 72 h and processed for immunofluorescence assay as previously described (Int. J. Parasitol. 2017; 47(13), 867-874). Briefly, medium was decanted, and the cells fixed with methanol-acetic acid (9:1) for 2 minutes at room temperature. The cells were rehydrated and permeabilized by two successive washes with buffer (0.1% Triton X-100, 0.35 M NaCl, 0.13 M Tris-base, pH 7.6) and blocked with 5% normal goat serum, followed by staining with antibody to C. parvum (SporoGlo; Waterborn, Inc.) overnight at 4° C. The stained cells were washed twice with PBS, followed by water, and then imaged with an inverted fluorescence microscope. Fluorescence quantification was done using ImageJ version 1.37v software (NIH). Assays were performed in triplicate and repeated at least thrice.

[2] = molecular target: recombinant CpLDH protein (Cryptosporidium parvum, UniProt Q9GT92, F198L/K295E/R251K); assay: biochemical; type: biochemical
recombinant CpLDH protein, sequence (Q9GT92 whole entry F198L/K295E/R251K): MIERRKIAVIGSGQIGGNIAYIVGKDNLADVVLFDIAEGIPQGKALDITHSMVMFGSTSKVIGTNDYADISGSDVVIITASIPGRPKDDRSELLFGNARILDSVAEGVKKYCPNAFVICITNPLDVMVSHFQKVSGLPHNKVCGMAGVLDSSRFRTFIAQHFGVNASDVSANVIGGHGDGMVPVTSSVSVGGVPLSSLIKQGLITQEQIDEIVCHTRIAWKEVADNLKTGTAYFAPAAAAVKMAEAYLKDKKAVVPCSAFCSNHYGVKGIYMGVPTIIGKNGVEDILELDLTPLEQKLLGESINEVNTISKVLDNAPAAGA
Description: Biochemical assays. The coding sequence of CpLDH was cloned from cDNA prepared from the AUCP-1 isolate of C. parvum, and the His-tagged CpLDH recombinant protein expressed in Escherichia coli, and purified in native form essentially as previously described (Int. J. Parasitol. 2017; 47(13), 867-874). Briefly, cDNA was prepared from total RNA extracted from the AUCP-1 isolate of C. parvum, and the coding sequencing of CpLDH (Genebank accession number AF274310.1) was PCR-amplified from the cDNA using a primer pair with a XhoI restriction site and a BamHI site. The PCR amplicon was cloned at the XhoI/BamHI site of the pET15b expression vector in-frame with the hexahistidine (His-tag) at the N-terminal and sequenced to confirm identity. The recombinant expression vector was transformed into protein expression E. coli BL21-CodonPlus-DE3-RIL (Stratagene). Transformed E. coli was cultured at 37° C. in Luria broth medium (supplemented with 100 μg/ml ampicillin and 34 μg/ml chloramphenicol) to an A600 of 0.8 followed by addition of 1 mM isopropyl-β-d-thiogalactopyranoside to induce protein expression. The expression E. coli was harvested and lysed under native conditions by sonicating in lysis buffer (50 mM NaH2PO4, 300 mM NaCl, 10 mM Imidazole, pH 8.0) containing a 1× EDTA-free protease inhibitor cocktail, 600 units benzonase and 30 kU lysozyme (EMD Millipore). The lysate was clarified by centrifugation and the His-tagged recombinant protein purified under native conditions by nickel-affinity chromatography according to the manufacturer's instructions (Novagen). The wash buffer used contained 50 mM NaH2PO4, 300 mM NaCl and 20 mM Imidazole, pH 8.0, while the elution buffer was composed of 50 mM NaH2PO4, 300 mM NaCl, 250 mM Imidazole, pH 8.0. The eluate was dialyzed using a buffer containing 5 mM Hepes-KOH (pH 7.8) and 0.5 mM DTT. The purity of the recombinant protein was determined by SDS/PAGE, and the concentration measured using a Qubit 3.0 fluorometer (Life technologies). […] On the other hand, the catalytic activity of CpLDH recombinant protein for the oxidation of lactate to pyruvate was determined by measuring the change in optical density of a 100 μl reaction mixture containing 100 mM lactate, 1 mM NAD^+, 100 mM Tris, pH 9.2, with varying concentrations of CpLDH recombinant protein at 25° C. […] In all assays, reaction mixtures without recombinant CpLDH protein were included as negative controls. All assays were performed in triplicate and repeated at least thrice. The change in optical density was measured every 15 seconds for a total of 2 minutes using a Spectra Max 384 Plus plate reader (Molecular Devices) at a wavelength of 340 nm.
Screening compounds for inhibitory activity against CpLDH. The chemical compounds were obtained from the National Cancer Institute/Developmental Therapeutics Program Open Chemical Repository. They consisted of a diverse set of compounds (n=27) reported previously (Int J Parasitol Drugs Drug Resist. 2016; 6(1), 44-53), and a Mechanistic Set IV compounds (n=800). The compounds were reconstituted in dimethyl sulfoxide (DMSO) as stock solutions. Just before use, aliquots of the stock solutions were diluted in sterile distilled water to generate working solutions, such that the final amount of DMSO added to the reaction mixtures was less than 1% (V/V). The compounds were tested for their inhibitory effect against the enzymatic activity of recombinant His-tagged CpLDH for catalyzing the reduction of pyruvate to lactate. […] Control reactions without recombinant CpLDH protein were included. Reactions were performed in triplicate and repeated at least thrice. The change in optical density was measured every 15 seconds for a total of 2 minutes using a Spectra Max 384 Plus plate reader (Molecular Devices) at a wavelength of 340 nm.

O=C1c2ccccc2C(=O)c2c(O)c(O)cc(O)c21 [NSC10447]
effect on C. parvum proliferation in initial screen ([1]; 48 h post-infection, concentrations at least 50% lower than cytotoxicity IC50): significantly (P<0.05) inhibit C. parvum proliferation | IC50 ([1]; 48 h, compound added at the time of infection, read-out: IC50, inhibition of C. parvum growth at 48 h p.i.): 72.7 µM | IC50 ([1]; 72 h, compound added at the time of infection, read-out: IC50, inhibition of C. parvum growth at 72 h p.i.): 83.6 µM | IC50 ([1]; compound added 2 h post-infection, read-out: IC50, inhibition of C. parvum growth at 48 h p.i. (2 h)): 79.5 µM | IC50 ([1]; compound added 2 h post-infection, read-out: IC50, inhibition of C. parvum growth at 72 h p.i. (2 h)): 95.2 µM | IC50 [2]: 46.3 µM | effect on catalytic activity of recombinant CpLDH ([2]; 20 μM compound, 10 mM pyruvate, 1 mM NADH): significant (P<0.05) inhibitory effect
